Patent US7897781B2, “Cold menthol receptor-1 antagonists” (Janssen Pharmaceutica NV, priority 2006, dated 2011)
Values joined by “and” are separate entries in the source; they are usually repeats but may differ in a detail not shown here. Identical values can stand only once.

The compounds below were run against T1, canine TRPM8 (Canis lupus familiaris, UniProt Q1A7N1) (assay: In vitro canine TRPM8 functional assay (Ca2+-sensitive dye, icilin activation; Table 4 TRPM8 Screening)). Settings: compound at 0.5 μM; HEK293 cells expressing canine TRPM8, icilin activation.
T1 construct: expressed in transfected cells
T1 sequence (Q1A7N1 1-1104): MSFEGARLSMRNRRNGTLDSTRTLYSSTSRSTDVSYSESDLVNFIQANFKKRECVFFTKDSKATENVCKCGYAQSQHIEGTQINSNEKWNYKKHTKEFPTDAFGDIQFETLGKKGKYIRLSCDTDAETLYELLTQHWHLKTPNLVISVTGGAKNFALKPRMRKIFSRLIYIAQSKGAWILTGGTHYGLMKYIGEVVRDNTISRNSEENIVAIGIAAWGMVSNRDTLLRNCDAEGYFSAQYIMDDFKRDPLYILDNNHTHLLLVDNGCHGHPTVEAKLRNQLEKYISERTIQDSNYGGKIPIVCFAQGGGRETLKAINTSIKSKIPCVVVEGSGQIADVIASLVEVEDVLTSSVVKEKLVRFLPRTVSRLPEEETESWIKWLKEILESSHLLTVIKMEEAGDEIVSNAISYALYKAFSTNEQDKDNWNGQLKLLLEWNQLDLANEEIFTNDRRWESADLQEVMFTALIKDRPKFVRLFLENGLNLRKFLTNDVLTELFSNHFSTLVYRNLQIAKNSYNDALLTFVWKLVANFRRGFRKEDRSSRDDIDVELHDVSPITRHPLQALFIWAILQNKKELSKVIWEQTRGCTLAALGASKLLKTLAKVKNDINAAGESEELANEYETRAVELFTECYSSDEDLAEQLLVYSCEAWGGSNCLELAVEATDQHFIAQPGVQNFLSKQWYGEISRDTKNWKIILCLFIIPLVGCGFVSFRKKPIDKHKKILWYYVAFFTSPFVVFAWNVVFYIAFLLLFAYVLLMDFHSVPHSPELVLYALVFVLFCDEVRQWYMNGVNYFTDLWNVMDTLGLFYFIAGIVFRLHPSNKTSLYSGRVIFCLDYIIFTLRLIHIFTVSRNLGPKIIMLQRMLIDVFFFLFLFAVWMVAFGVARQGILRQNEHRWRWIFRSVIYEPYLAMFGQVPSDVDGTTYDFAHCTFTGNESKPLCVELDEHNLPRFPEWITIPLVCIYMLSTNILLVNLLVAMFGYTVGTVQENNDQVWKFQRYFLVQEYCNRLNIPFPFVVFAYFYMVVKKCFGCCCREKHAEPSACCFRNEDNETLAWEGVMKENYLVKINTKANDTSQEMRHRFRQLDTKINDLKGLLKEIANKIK
Assay type: cell-based
Description: The functional activity of compounds of Formula (I) was determined by measuring changes in intracellular calcium concentration using a Ca^2+-sensitive fluorescent dye. The changes in fluorescent signal were monitored by a fluorescence plate reader, either a FLIPR™ (Molecular Devices) or FDSS (Hamamatsu).
HEK293 cells stably expressing canine TRPM8 were routinely grown as monolayers in Dulbecco's minimum essential medium supplemented with 10% FBS, 1 mM L-glutamine, 100 units/mL penicillin, 100 ug/mL streptomycin and 400 μg/mL G418. Cells were maintained in 5% CO2 at 37° C. At 24 hrs prior to assay, cells were seeded in clear-base poly-D-lysine coated 384-well plates (BD Biosciences, NJ, USA) at a density of 5,000 cells per well in culture medium and grown overnight in 5% CO2 at 37° C. On assay day, growth media was removed and cells were loaded with Calcium 3 Dye (Molecular Devices) for 35 min at 37° C., under 5% CO2 and then for 25 min at room temperature and atmosphere. Subsequently, cells were tested for agonist-induced increases in intracellular Ca^2+ levels using FLIPR™ or FDSS. Cells were challenged with a compound of Formula (I) (at varying concentrations) and intracellular Ca^2+ was measured for 5 min prior to the addition of icilin to all wells to achieve a final concentration which produces approximately an 80% maximal response.
Basal FI was subtracted prior to normalizing data to percent of maximal response. Curves were generated using the average of quadruplicate wells for each data point, were analyzed using nonlinear regression of either sigmoidal dose response or sigmoidal dose response (variable slope). Finally, the EC50 and IC50 values were calculated with the best-fit dose curve determined by GraphPad Prism.

Going from `CC(C)OP(=O)(OC(C)C)C(Cc1ccc(S(C)(=O)=O)cc1)c1sc2ccccc2c1Br` (stereo not drawn) [Cpd 252] to `CC(C)OP(=O)(OC(C)C)C(Cc1cccc(O)c1)c1sc2ccccc2c1Br` (stereo not drawn) [Cpd 325], the “% I (0.5 μM)” value rises from 44% to 97%.

Compared with `CC(C)OP(=O)(OC(C)C)C(Cc1cccc(C(F)(F)F)c1Cl)c1sc2ccccc2c1Cl` (stereo not drawn) [Cpd 177], `CCOP(=O)(OCC)C(Cc1ccccc1C(F)(F)F)c1sc2ccccc2c1Cl` (racemic) [Cpd 279] is higher in “% I (0.5 μM)” value: 96% for the first, 97% for the second.

Compared with `CCOP(=O)(OCC)C(Cc1ccc(F)c(F)c1)c1sc2ccccc2c1-c1cccc(C(=O)OC)c1` (stereo not drawn) [Cpd 219], `CCOP(=O)(OCC)C(Cc1ccc(F)c(F)c1)c1sc2ccccc2c1-c1ccccc1F` (racemic) [Cpd 216] is higher in “% I (0.5 μM)” value: 68% for the first, 100% for the second.

Going from `CC(=O)OCCOP(=O)(OCCOC(C)=O)C(Cc1ccc(F)c(F)c1)c1sc2ccccc2c1Br` (racemic) [Cpd 213] to `CC(C)CCOP(=O)(OCCC(C)C)C(Cc1ccc(F)c(F)c1)c1sc2ccccc2c1Br` (racemic) [Cpd 211], the “% I (0.5 μM)” value falls from 100% to 97%.

Going from `CCOP(=O)(OCC)C(Cc1cc(C(F)(F)F)cc(C(F)(F)F)c1)c1sc2ccccc2c1Cl` (racemic) [Cpd 282] to `CCOP(=O)(OCC)C(Cc1cc(C(F)(F)F)ccc1Cl)c1sc2ccccc2c1Cl` (stereo not drawn) [Cpd 274], the “% I (0.5 μM)” value falls from 100% to 95%.

First: CC(C)OP(=O)(OC(C)C)[C@H](Cc1ccc(F)c(F)c1)c1sc2ccccc2c1Br [Cpd 235, (R)-[1-(3-Bromo-benzo[b]thiophen-2-yl)-2-(3,4-difluoro-phenyl)-ethyl]-phosphonic acid diisopropyl ester]
Second: CC(C)OP(=O)(OC(C)C)C(Cc1ccc(O)c(F)c1)c1sc2ccccc2c1Br (stereo not drawn) [Cpd 227]
The “% I (0.5 μM)” value of the first is higher: 93% for the first, 52% for the second.

Compared with `CCOP(=O)(OCC)C(Cc1ccc(O)cc1)c1sc2ccccc2c1Br` (stereo not drawn) [Cpd 324], `CCOP(=O)(OCC)C(Cc1ccc(F)c(OC)c1)c1sc2ccccc2c1Br` (stereo not drawn) [Cpd 156] is higher in “% I (0.5 μM)” value: 54% for the first, 98% for the second.

`CCOP(=O)(OCC)C(Cc1cc(OC)c(Cl)cc1F)c1sc2ccccc2c1Br` (racemic) [Cpd 164] and `CCOP(=O)(OCC)C(Cc1c(F)c(F)c(O)c(F)c1F)c1sc2ccccc2c1Br` (racemic) [Cpd 228] are the same in “% I (0.5 μM)” value: 94% for the first, 94% for the second.

Compared with `CC(C)OP(=O)(OC(C)C)C(Cc1ccc(F)c(F)c1)c1sc2ncccc2c1Br` (racemic) [Cpd 207], `CC(C)OP(=O)(OC(C)C)C(Cc1c(F)c(F)c(O)c(F)c1F)c1sc2ccccc2c1Br` (racemic) [Cpd 229] is lower in “% I (0.5 μM)” value: 99% for the first, 95% for the second.

“(R)-[1-(3-Bromo-benzo[b]thiophen-2-yl)-2-(4-fluoro-phenyl)-ethyl]-phosphonic acid diisopropyl ester [Cpd 240]” was tested, and the “% I (0.5 μM)” value was 98% and 77%.
For `CCOP(=O)(OCC)C(Cc1cccc(OC(F)(F)F)c1)c1sc2ccccc2c1Br` (racemic) [Cpd 145], the “% I (0.5 μM)” value was 103, %.

Same assay, conditions: compound at 0.5 μM; HEK293 cells expressing canine TRPM8, icilin activation; read-out: % I (0.5 μM)

`CC(C)OP(=O)(OC(C)C)C(Cc1ccc(F)c(C(F)(F)F)c1)c1c(Br)c2ccccc2n1C(=O)OC(C)(C)C` (stereo not drawn) [Cpd 327, 3-Bromo-2-[1-(diisopropoxy-phosphoryl)-2-(4-fluoro-3-trifluoromethyl-phenyl)-ethyl]-indole-1-carboxylic acid tert-butyl ester] was tested, and the inhibition at 0.5 µM was 44%.

Same assay, conditions: compound at 1 μM; HEK293 cells expressing canine TRPM8, icilin activation

First: CCC(C)P(=O)(C(C)CC)C(Cc1ccc(F)c(F)c1)c1sc2ccccc2c1Br (stereo not drawn) [Cpd 203]
Second: CCOP(=O)(OCC)C(Cc1cccc(Cl)c1Cl)c1sc2ccccc2c1C (stereo not drawn) [Cpd 35]
The “% I (1 μM)” value of the first is lower: 96% for the first, 100% for the second.

First: CCOP(=O)(OCC)C(Cc1c(Cl)ccc(C)c1F)c1sc2ccccc2c1C (stereo not drawn) [Cpd 60]
Second: CCOP(=O)(Cc1cc2ccccc2s1)OCc1ccccc1Cl (racemic) [Cpd 105]
The “% I (1 μM)” value of the first is higher: 100% for the first, 48% for the second.

First: CCOP(=O)(OCC)C(Cc1ccccc1Br)c1sc2ccccc2c1C (stereo not drawn) [Cpd 66]
Second: CCOP(=O)(OCC)C(Cc1ccccc1C(F)(F)F)c1sc2ccccc2c1C (stereo not drawn) [Cpd 59]
The “% I (1 μM)” value of the first is higher: 100% for the first, 99% for the second.

`CCOP(=O)(OCC)C(Cc1cccc(C(F)(F)F)c1)c1cc2ccccc2s1` (stereo not drawn) [Cpd 39] and `CCOP(=O)(OCC)C(Cc1cc(F)c(Cl)cc1Cl)c1sc2ccccc2c1C` (stereo not drawn) [Cpd 76] are the same in “% I (1 μM)” value: 100% for the first, 100% for the second.

Compared with `CCOP(=O)(OCC)C(Cc1ccc(C(F)(F)F)c(F)c1)c1cc2ccccc2s1` (stereo not drawn) [Cpd 58], “[2-(3,4-Difluoro-phenyl)-1-(3-methyl-benzo[b]thiophene-2-yl)-ethyl]-[3-(4-methoxy-phenyl)-propyl]-phosphonic acid ethyl ester [Cpd 136]” is lower in “% I (1 μM)” value: 100% for the first, 91% for the second.

Going from `COP(=O)(OC)C(Cc1ccc(F)c(F)c1)c1sc2ccccc2c1Br` (stereo not drawn) [Cpd 201] to `CCOP(=O)(OCC)C(Cc1ccc(F)c(F)c1)c1cc2ccccc2o1` (stereo not drawn) [Cpd 265], the “% I (1 μM)” value falls from 100% to 95%.

Compared with `CC(C)OP(=O)(OC(C)C)C(Cc1ccc(F)c(F)c1)c1sc2ccccc2c1C1CCCC1` (stereo not drawn) [Cpd 38], “[2-(3,4-Difluoro-phenyl)-1-(3-methyl-benzo[b]thiophene-2-yl)-ethyl]-methyl-phosphonic acid ethyl ester [Cpd 106]” is lower in “% I (1 μM)” value: 99% for the first, 32% for the second.

`CCOP(=O)(OCC)C(Cc1ccccc1OC(F)(F)F)c1sc2ccccc2c1C` (stereo not drawn) [Cpd 61] and `CCOP(=O)(OCC)C(Cc1c(Cl)cccc1Cl)c1sc2ccccc2c1C` (stereo not drawn) [Cpd 54] are the same in “% I (1 μM)” value: 100% for the first, 100% for the second.

Going from `CCOP(=O)(OCC)C(Cc1ccc(F)cc1Cl)c1sc2ccccc2c1C` (stereo not drawn) [Cpd 27] to `CCOP(=O)(OCC)C(Cc1cc(C(F)(F)F)cc(Cl)c1F)c1sc2ccccc2c1C` (stereo not drawn) [Cpd 73], the “% I (1 μM)” value rises from 99% to 100%.

Going from `CCOP(=O)(OCC)C(Cc1cc(C(F)(F)F)ccc1F)c1sc2ccccc2c1C` (stereo not drawn) [Cpd 67] to `CC(C)OP(=O)(OC(C)C)C(Cc1cccc(C(F)(F)F)c1)c1cc2ccccc2s1` (stereo not drawn) [Cpd 69], the “% I (1 μM)” value falls from 100% to 99%.

First: CCOP(=O)(OCC)C(Cc1cccc(Cl)c1Cl)c1cc2ccccc2s1 (stereo not drawn) [Cpd 100]
Second: CCOP(=O)(OCC)C(Cc1cc2ccccc2s1)c1cc2ccccc2s1 (stereo not drawn) [Cpd 90]
The “% I (1 μM)” value of the first is lower: 82% for the first, 89% for the second.

Compared with `CCOP(=O)(OCC)C(Cc1cc2c(cc1Cl)OCO2)c1cc2ccccc2s1` (stereo not drawn) [Cpd 112], `CCOP(=O)(OCC)C(Cc1ccccc1C(F)(F)F)c1cc2ccccc2s1` (stereo not drawn) [Cpd 102] is higher in “% I (1 μM)” value: 42% for the first, 86% for the second.

Compared with `CCOP(=O)(OCC)C(Cc1ccc(F)cc1Cl)c1cc2ccccc2s1` (stereo not drawn) [Cpd 98], `CCOP(=O)(OCC)C(Cc1ccc2ccccc2c1)c1sc2ccccc2c1C` (stereo not drawn) [Cpd 46] is higher in “% I (1 μM)” value: 79% for the first, 99% for the second.

First: CCOP(=O)(OCC)C(Cc1ccc(F)c(F)c1)c1oc2cccc(F)c2c1Br (racemic) [Cpd 206]
Second: CCOP(=O)(OCC)C(Cc1ccccc1)c1cc2ccccc2s1 (stereo not drawn) [Cpd 74]
The “% I (1 μM)” value of the first is higher: 100% for the first, 92% for the second.

Going from `CCOP(=O)(OCC)C(Cc1c(Cl)cccc1Cl)c1cc2ccccc2s1` (stereo not drawn) [Cpd 95] to `CCOP(=O)(OCC)C(Cc1ccc(Br)cc1)c1cc2ccccc2s1` (stereo not drawn) [Cpd 70], the “% I (1 μM)” value falls from 89% to 82%.

Going from `CCOP(=O)(Cc1cc2ccccc2s1)OCc1ccccc1Br` (stereo not drawn) [Cpd 110] to `CCOP(=O)(OCC)C(Cc1ccc(C(F)(F)F)cc1)c1cc2ccccc2s1` (stereo not drawn) [Cpd 68], the “% I (1 μM)” value rises from 11% to 96%.

Compared with `CCOP(=O)(OCC)C(Cc1cc(C(F)(F)F)ccc1C(F)(F)F)c1sc2ccccc2c1C` (stereo not drawn) [Cpd 113], `CCOP(=O)(OCC)C(Cc1cc2c(cc1Cl)OCO2)c1sc2ccccc2c1C` (stereo not drawn) [Cpd 71] is higher in “% I (1 μM)” value: 25% for the first, 98% for the second.

First: CC(C)OP(=O)(OC(C)C)C(Cc1ccccc1F)c1sc2cccc(Br)c2c1Br (stereo not drawn) [Cpd 198]
Second: CCCP(=O)(CCC)C(OCc1ccc(F)c(F)c1)c1sc2ccccc2c1C (stereo not drawn) [Cpd 42]
The “% I (1 μM)” value of the first is lower: 98% for the first, 100% for the second.

With `CCOP(=O)(OCC)C(Cc1ccc(F)c(F)c1)C1=C(C)c2ccccc2S1(=O)=O` (stereo not drawn) [Cpd 88, [2-(3,4-Difluoro-phenyl)-1-(3-methyl-1,1-dioxo-1H-1λ^6-benzo-[b]thiophen-2-yl)-ethyl]-phosphonic acid diethyl ester] the “% I (1 μM)” value was 89%.

`Cc1c(C(Cc2ccc(F)c(F)c2)P(=O)(OC(C)C)OC(C)C)sc2ncccc12` (stereo not drawn) [Cpd 34, [2-(3,4-Difluoro-phenyl)-1-(3-methyl-thieno[2,3-b]pyridin-2-yl)-ethyl]-phosphonic acid diisopropyl ester] was tested, and the “% I (1 μM)” value was 101, 101%.
“[2-(3,4-Difluoro-phenyl)-1-(3-methyl-benzo[b]thiophene-2-yl)-ethyl]-methyl-phosphonic acid ethyl ester [Cpd 30]” was tested, and the “% I (1 μM)” value was 100% and 99%.
For `CCOP(=O)(OCC)C(Cc1cccc(C(F)(F)F)c1Cl)c1sc2ccccc2c1C` (stereo not drawn) [Cpd 81], the “% I (1 μM)” value was 100% and 87%.
With `CC(C)OP(=O)(OC(C)C)C(Cc1ccc(F)c(F)c1)c1sc2ccccc2c1Br` (stereo not drawn) [Cpd 15, [1-(3-Bromo-benzo[b]thiophen-2-yl)-2-(3,4-difluoro-phenyl)ethyl]-phosphonic acid diisopropyl ester] the “% I (1 μM)” value was 100% and 103%.

Same assay, conditions: compound at 5 μM; HEK293 cells expressing canine TRPM8, icilin activation

First: CCOP(=O)(Cc1cc2ccccc2s1)OCc1ccccc1Cl (racemic) [Cpd 105]
Second: CCOP(=O)(Cc1cc2ccccc2s1)OCc1ccccc1Br (stereo not drawn) [Cpd 110]
The “% I (5 μM)” value of the first is higher: 100% for the first, 96% for the second.

Compared with `CCOP(=O)(OCC)C(Cc1c(Cl)cccc1Cl)c1cc2ccccc2s1` (stereo not drawn) [Cpd 95], `CCOP(=O)(OCC)C(Cc1ccc(Br)cc1)c1cc2ccccc2s1` (stereo not drawn) [Cpd 70] is lower in “% I (5 μM)” value: 100% for the first, 99% for the second.
